We go through 13 compounds from patent US20220144815A1, “1,3,4-OXADIAZOLES AND THEIR DERIVATIVES AS NEW ANTIFUNGAL AGENTS” (Bayer Aktiengesellschaft, priority 2018, published 2022).

Where two headings read alike, the source gives them in different places.

The nature of data set [1]: Log P by HPLC on reversed phase columns, method [a] (EEC directive 79/831 Annex V.A8). The following applies: reversed phase HPLC column, read-out: logP. The format is physicochemical. The essentials: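 Reversed-phase HPLC with LC-UV detection per EEC directive 79/831 Annex V.A8, acidic eluent of 0.1% formic acid in water and acetonitrile, linear gradient 10% to 95% acetonitrile. Log P derived from retention times, calibrated against straight-chain alkan-2-ones (C3–C16) by linear interpolation.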

For data set [2], the system named is Botrytis cinerea. Briefly: Example C: in vivo preventive test (grey mould) on gherkin or cabbage. The following applies: 500 ppm of active ingredient, preventive spray, evaluated 4 to 5 days after inoculation, read-out: efficacy. As for the experimental part: Solvent: 5% by volume of dimethyl sulfoxide • 10% by volume of acetone Emulsifier: 1 μl of Tween® 80 per mg of active ingredient The tested compounds were made soluble and homogenized in a mixture of dimethyl sulfoxide/acetone/Tween® 80 and then diluted in water to the desired concentration. The young plants of gherkin or cabbage were treated by spraying the tested compound prepared as described above. Control plants were treated only with an aqueous solution of acetone/dimethyl sulfoxide/Tween® 80. After 24 hours, the plants were contaminated by spraying the leaves with an aqueous suspension of Botrytis cinerea spores. The contaminated gherkin plants were incubated for 4 to 5 days at 17° C. and at 90% relative humidity. The contaminated cabbage plants were incubated for 4 to 5 days at 20° C. and at 100% relative humidity. The test was evaluated 4 to 5 days after the inoculation. 0% means an efficacy which corresponds to that of the control plants while an efficacy of 100% means that no disease was observed.

Data set [3] deals with Colletotrichum lindemuthianum. The data set can be described thus: Example B: in vitro cell test, spore germination and mycelium growth in liquid culture. The format is cell-based. The note with it: 144 h, 20 ppm of tested compound, 6 days incubation, read-out: efficacy (inhibition of fungal growth). The essentials: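 Compounds in DMSO (final ≤1%) added to glucose/peptone/yeast extract liquid medium containing C. lindemuthianum spores. After 6 days incubation, mycelium growth measured spectrometrically; inhibition calculated from absorbance versus compound-free control wells.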

For data set [4], the system named is Alternaria brassicae. The data set can be described thus: Example E: in vivo preventive test (cabbage). The note with it: 144 h, 500 ppm of tested compound, preventive spray, evaluated 6 days after inoculation, read-out: efficacy. The essentials: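 Young cabbage plants sprayed with compound in DMSO/acetone/Tween 80 diluted in water, then inoculated 24 hours later with Alternaria brassicae spore suspension. Kept 6 days at 20° C., 100% relative humidity. Efficacy scored 6 days post-inoculation: 0% as solvent-treated controls, 100% no disease.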

Setting [5] is: log P determined according to method [a] (HPLC on reversed phase columns).

In the case of `Fc1ccccc1Nc1ncc(-c2nnc(C(F)(F)F)o2)cn1` [I.116, N-(2-fluorophenyl)-5-[5-(trifluoromethyl)-1,3,4-oxadiazol-2-yl]pyrimidin-2-amine], the chromatographic logP in data set [1] (setting [5]) came out at 2.99. For the same compound, in data set [2], the pest or weed control at 500 ppm lay in the range of 80 to 89%.

As a reminder, the inhibition of growth is how much of the control response was suppressed. On to `Fc1ccc(-c2ncc(-c3nnc(C(F)F)o3)cn2)cc1` [I.077, 5-[5-(difluoromethyl)-1,3,4-oxadiazol-2-yl]-2-(4-fluorophenyl)pyrimidine], for which, in data set [3], the inhibition of growth at 20 µg/mL was 90 to 100%. Besides, in data set [2], the pest or weed control at 500 ppm lay in the range of 70 to 79%.

On to `O=C(Cc1ccccc1)Nc1ccc(-c2nnc(C(F)F)o2)cn1` [I.050, N-{5-[5-(difluoromethyl)-1,3,4-oxadiazol-2-yl]pyridin-2-yl}-2-phenylacetamide], for which the pest or weed control at 500 ppm in data set [2] is 80 to 89%.

For the compound `Fc1ccccc1Nc1ncc(-c2nnc(C(F)F)s2)cn1` [I.113, 5-[5-(difluoromethyl)-1,3,4-thiadiazol-2-yl]-N-(2-fluorophenyl)pyrimidin-2-amine], the chromatographic logP in data set [1] (setting [5]) is 2.77. Moreover, the pest or weed control at 500 ppm in data set [2] lay within 90 to 100%. Moreover, in data set [4], the pest or weed control at 500 µg/mL lay in the range of 90 to 100%.

For `FC(F)c1nnc(-c2cnc(NC3(C4(c5ccccc5)CC4)CC3)nc2)o1` [I.170, 5-[5-(difluoromethyl)-1,3,4-oxadiazol-2-yl]-N-[1′-phenyl[1,1′-bi(cyclopropyl)]-1-yl]pyrimidin-2-amine], the chromatographic logP in data set [1] (method [a], HPLC on reversed phase columns) turned out to be 3.64. For the same compound, the pest or weed control at 500 ppm in data set [2] fell in the range of 70 to 79%. For the same compound, the pest or weed control at 500 µg/mL in data set [4] lay within 90 to 100%.

In the case of `CC(Sc1ncc(-c2nnc(C(F)F)o2)cn1)c1ccccc1` (racemic) [I.123, 5-[5-(difluoromethyl)-1,3,4-oxadiazol-2-yl]-2-{[(1RS)-1-phenylethyl]sulfanyl}pyrimidine], the chromatographic logP in data set [1] (setting [5]) was found to be 3.72. The inhibition of growth at 20 µg/mL in data set [3] lay within 90 to 100%. For the same compound, in data set [2], the pest or weed control at 500 ppm lay within 90 to 100%.

Consider `COc1ccccc1CN(OC)c1ncc(-c2nnc(C(F)F)o2)cn1` [I.161, N-{5-[5-(difluoromethyl)-1,3,4-oxadiazol-2-yl]pyrimidin-2-yl}-N-(2-methoxybenzyl)-O-methylhydroxylamine], for which the chromatographic logP in data set [1] (setting [5]) was determined as 2.97. For the same compound, the pest or weed control at 500 ppm in data set [2] lay in the range of 70 to 79%.

Take `Nc1ccc(-c2nnc(C(F)F)o2)cn1` [I.030, 5-[5-(difluoromethyl)-1,3,4-oxadiazol-2-yl]pyridin-2-amine]: the pest or weed control at 500 ppm in data set [2] fell in the range of 80 to 89%.

With `FC(F)c1nnc(-c2cnc(NC3(c4ccccc4)CCCC3)nc2)o1` [I.153, 5-[5-(difluoromethyl)-1,3,4-oxadiazol-2-yl]-N-(1-phenylcyclopentyl)pyrimidin-2-amine], in data set [1] (setting [5]), the chromatographic logP turned out to be 3.57. For the same compound, the pest or weed control at 500 ppm in data set [2] fell in the range of 70 to 79%.

On to `FC(F)c1nnc(-c2cnc(Nc3ccccc3)nc2)o1` [I.076, 5-[5-(difluoromethyl)-1,3,4-oxadiazol-2-yl]-N-phenylpyrimidin-2-amine], for which the pest or weed control at 500 ppm in data set [2] is 90 to 100%. The pest or weed control at 500 µg/mL in data set [4] was in the range of 90 to 100%.

Regarding `CC(=O)Nc1ccc(-c2nnc(C(F)F)o2)cn1` [I.034, N-{5-[5-(difluoromethyl)-1,3,4-oxadiazol-2-yl]pyridin-2-yl}acetamide], the pest or weed control at 500 ppm in data set [2] was in the range of 80 to 89%.

In the case of `CC1(C(=O)Nc2ccc(-c3nnc(C(F)F)o3)cn2)CC1` [I.045, N-{5-[5-(difluoromethyl)-1,3,4-oxadiazol-2-yl]pyridin-2-yl}-1-methylcyclopropanecarboxamide], the pest or weed control at 500 ppm in data set [2] is 90 to 100%. The pest or weed control at 500 µg/mL in data set [4] was 90 to 100%.

For the compound `Fc1ccccc1Nc1ccc(-c2nnc(C(F)(F)Cl)o2)cn1` [I.053, 5-{5-[chloro(difluoro)methyl]-1,3,4-oxadiazol-2-yl}-N-(2-fluorophenyl)pyridin-2-amine], in data set [2], the pest or weed control at 500 ppm fell in the range of 80 to 89%.
